# Results taken from patent publication US9474759B2 (priority 2011, dated 2016).
# pEC50: −log10 of the molar value.
# How the values were obtained:
# MNV-1 = assay: Cell-based screening, MNV-1 in RAW267.4 cells (Example 2); design: species or system murine norovirus; conditions: Norwalk virus; RAW267.4 cells; read-out: Inhibition [ED50 (μM)] against various viruses: Calicivirus, MNV-1
# Protocol: (§1) 3. Cell-based screening of inhibitor. The effects of each inhibitor on the viral replication were examined. The list of viruses and corresponding cell lines are listed above in Table 2. Briefly, confluent cells were inoculated with virus at a MOI of 5 or 0.05 for 1 hr, and medium was replaced with medium containing mock-medium or each compound (up to 100 μM). The virus infected cells were further incubated for up to 96 hrs, and the replication of virus was measured by TCID50 assay with the 10-fold dilution of each sample used for virus titration (Reed and Muench, 1938). In some viruses, the virus protein and genome expression levels were detected by Western blot analysis and real-time qRT-PCR, respectively, as described below. The IC50s of the compounds were calculated.
# FIPV-1146 = assay: Combination treatment of CA074-Me and GC373 on FIPV-1146 replication, MacSynergy II; format: cell-based, feline coronavirus; conditions: GC373 alone at 0.05 μM, FIPV-infected CRFK cells
# Protocol: The CRFK cells were incubated with GC373 (0.02˜0.2 μM), CA074-Me (0.5˜5 μM), or the combinations of GC373 (0.02˜0.2 μM) and CA074-Me (0.5˜5 μM) for 1 hr at 37° C. prior to inoculation of FIPV-1146 at an MOI of 0.05. After 24 hrs of incubation, virus replication was assessed with virus titration using the TCID50 method. Drug-drug interactions were analyzed by the three-dimensional model of Prichard and Shipman, using the MacSynergy II software at 95% confidence limits. Theoretical additive interactions were calculated from the dose-response curve for each compound individually, and the calculated additive surface was subtracted from the experimentally determined dose-response surface to give regions of synergistic or antagonistic interactions. The resulting surface appears as horizontal plane at 0% of synergy if the interactions of two compounds are additive. Any peak above or below this plane indicates synergy or antagonism, respectively.
# [1] = test system: murine norovirus-1 (MNV-1); assay: MNV-1 replication in RAW267.4 cells, TCID50 (Example 1); format: cell-based; conditions: Norwalk virus, MOI 2, TCID50 assay, read-out: ED50, replication of murine norovirus (MNV)
# FIPV = assay: Cell-based screening, FIPV in CRFK cells (Example 2); design: species or system feline infectious peritonitis virus; conditions: Alphacoronavirus 1; CRFK cells; read-out: Inhibition [ED50 (μM)] against various viruses: Coronavirus, FIPV
# Protocol: as §1
smiles,measurement,setting,value
CC(C)C[C@H](NC(=O)OCc1ccccc1)C(=O)N[C@H](C=O)C[C@@H]1CCNC1=O [GC373],EC50,MNV-1,6.5 µM
same,reduction of virus titers,FIPV-1146,0.5 log10
same,pEC50,[1],5.26
same,EC50,FIPV,0.3 µM
